Data as given in ChEMBL document CHEMBL3885861, “Open TG-GATES”.

Species: Rattus norvegicus
Experiment: Open TG-GATES - Regimen: Single
Type: toxicity, organism-based, Sprague-Dawley
Set-up: regimen Single, gender Male, age 6 weeks
Details: in vivo, po, 100 mg/kg, route gavage, dose level Middle; for APTT / Bas / Eos / Fbg / Hb / Ht / Lym / MCH / MCHC / MCV / Mono / Neu / PT / Plat / RBC / Ret / WBC: tissue Blood; for ALP / ALT / AST / BUN / CRE / DBIL / GLC / IP / K / Na / PL / RALB / TBIL / TC / TG / TP / gamma-GTP: tissue Plasma

Question: Which results are given for `NS(=O)(=O)c1cc(C(=O)O)c(NCc2ccco2)cc1Cl` [FUROSEMIDE]?
Answer: TERMINAL_BW (3 h): 199.5 g; APTT (3 h): 18.8 s; Bas (3 h): 0%; Eos (3 h): 1%; Fbg (3 h): 324.8 mg/dL; Hb (3 h): 14.3 g/dL; Ht (3 h): 42.5%; Lym (3 h): 70.8%; MCH (3 h): 21.4 pg; MCHC (3 h): 33.7%; MCV (3 h): 63.3 fL; Mono (3 h): 5.4%; Neu (3 h): 22%; PT (3 h): 14.9 s; Plat (3 h): 121.3 x10_4/uL; RBC (3 h): 670.4 x10_4/ul; Ret (3 h): 7.9%; WBC (3 h): 73.3 x10_2/uL; ALP (3 h): 1574.2 IU/L; ALT (3 h): 43.6 IU/L; AST (3 h): 77.6 IU/L; BUN (3 h): 19.8 mg/dL; CRE (3 h): 0.3 mg/dL; DBIL (3 h): 0.01 mg/dL; GLC (3 h): 182.2 mg/dL; IP (3 h): 11.3 mg/dL; K (3 h): 3.6 meq/L; Na (3 h): 140.8 meq/L; PL (3 h): 161.6 mg/dL; RALB (3 h): 3 g/dL; TBIL (3 h): 0.064 mg/dL; TC (3 h): 88 mg/dL; TG (3 h): 64.2 mg/dL; TP (3 h): 6.4 g/dL; gamma-GTP (3 h): 1 IU/L; TERMINAL_BW (6 h): 195.4 g; APTT (6 h): 17.3 s; Bas (6 h): 0%; Eos (6 h): 1%; Fbg (6 h): 323.2 mg/dL; Hb (6 h): 14.7 g/dL; Ht (6 h): 43.3%; Lym (6 h): 64.8%; MCH (6 h): 20.8 pg; MCHC (6 h): 33.8%; MCV (6 h): 61.7 fL; Mono (6 h): 4.2%; Neu (6 h): 29.6%; PT (6 h): 14.9 s; Plat (6 h): 125.9 x10_4/uL; RBC (6 h): 703.4 x10_4/ul; Ret (6 h): 7.7%; WBC (6 h): 73.2 x10_2/uL; ALP (6 h): 1685 IU/L; ALT (6 h): 42.6 IU/L; AST (6 h): 84.6 IU/L; BUN (6 h): 21.8 mg/dL; CRE (6 h): 0.2 mg/dL; DBIL (6 h): 0.012 mg/dL; GLC (6 h): 192.6 mg/dL; IP (6 h): 10.4 mg/dL; K (6 h): 3.5 meq/L; Na (6 h): 141.2 meq/L; PL (6 h): 162.8 mg/dL; RALB (6 h): 3 g/dL; TBIL (6 h): 0.068 mg/dL; TC (6 h): 83.6 mg/dL; TG (6 h): 71.8 mg/dL; TP (6 h): 6.4 g/dL; gamma-GTP (6 h): 1 IU/L; TERMINAL_BW (9 h): 193.8 g; APTT (9 h): 18 s; Bas (9 h): 0%; Eos (9 h): 0.8%; Fbg (9 h): 334.8 mg/dL; Hb (9 h): 14.6 g/dL; Ht (9 h): 42.6%; Lym (9 h): 68.6%; MCH (9 h): 20.8 pg; MCHC (9 h): 34.1%; MCV (9 h): 61.1 fL; Mono (9 h): 3.2%; Neu (9 h): 26.8%; PT (9 h): 15 s; Plat (9 h): 133.5 x10_4/uL; RBC (9 h): 697.8 x10_4/ul; Ret (9 h): 7.4%; WBC (9 h): 72.2 x10_2/uL; ALP (9 h): 1341.8 IU/L; ALT (9 h): 36.2 IU/L; AST (9 h): 74.6 IU/L; BUN (9 h): 20.2 mg/dL; CRE (9 h): 0.2 mg/dL; DBIL (9 h): 0.01 mg/dL; GLC (9 h): 173.8 mg/dL; IP (9 h): 11.1 mg/dL; K (9 h): 3.6 meq/L; Na (9 h): 141.4 meq/L; PL (9 h): 149.6 mg/dL; RALB (9 h): 3 g/dL; TBIL (9 h): 0.072 mg/dL; TC (9 h): 88.6 mg/dL; TG (9 h): 36.2 mg/dL; TP (9 h): 6.3 g/dL; gamma-GTP (9 h): 0.8 IU/L; TERMINAL_BW (24 h): 215 g; APTT (24 h): 17.7 s; Bas (24 h): 0%; Eos (24 h): 0.8%; Fbg (24 h): 286.8 mg/dL; Hb (24 h): 13.3 g/dL; Ht (24 h): 39.6%; Lym (24 h): 80.4%; MCH (24 h): 21.9 pg; MCHC (24 h): 33.7%; MCV (24 h): 64.9 fL; Mono (24 h): 2.4%; Neu (24 h): 15%; PT (24 h): 15.7 s; Plat (24 h): 102.2 x10_4/uL; RBC (24 h): 610.4 x10_4/ul; Ret (24 h): 7%; WBC (24 h): 102.9 x10_2/uL; ALP (24 h): 1380 IU/L; ALT (24 h): 42.4 IU/L; AST (24 h): 68.2 IU/L; BUN (24 h): 19.4 mg/dL; CRE (24 h): 0.2 mg/dL; DBIL (24 h): 0.008 mg/dL; GLC (24 h): 189.4 mg/dL; IP (24 h): 8 mg/dL; K (24 h): 3.7 meq/L; Na (24 h): 141.6 meq/L; PL (24 h): 155.2 mg/dL; RALB (24 h): 2.6 g/dL; TBIL (24 h): 0.054 mg/dL; TC (24 h): 81.4 mg/dL; TG (24 h): 56 mg/dL; TP (24 h): 5.7 g/dL; gamma-GTP (24 h): 0.2 IU/L
